Reference: patent EP1939270B1, “Demetallation of oil and hydrocarbon cuts and use of same” (TOTAL RAFFINAGE MARKETING, priority 2006, dated 2008)

Key:
[1] = Demetallation of model mixture (DAO + NiETIO + OEPVO): catalysed oxidation, metal removal, residual nickel by X-ray fluorescence; conditions: by mass
Source text: (§1) Le procédé de démétallation selon l'invention a été testé sur un mélange modèle de fractions pétrolières lourdes, composé d'un produit pétrolier ne contenant pas de nickel ni de vanadium, auxquelles ont été ajoutées des porphyrines modèles de nickel et de vanadium (exemples 1 à 4, 6 et 7).
(§2) La fraction pétrolière utilisée dans les exemples (DAO) est une huile désasphaltée au solvant, issue d'un résidu sous vide du brut Safaniya d'Arabie Saoudite. Il s'agit donc d'un résidu sous vide dépourvu d'asphaltènes, et donc de pétroporphyrines, pauvre en nickel (<0,2 ppm) et en vanadium (<0,1 ppm).
(§3) Les porphyrines modèles utilisées sont l'étioporphyrine de nickel (NiETIO) et l'octaéthylporphyrine de vanadyle (OEPVO), qui sont disponibles commercialement. Leurs formules sont les suivantes : [drawing 5] […]
(§4) Les différentes fractions sont ensuite évaporées afin de recueillir la fraction pétrolière de 2,02 g (soit un bilan matière de 97 %) qui est ensuite analysée par spectrométrie à fluorescence X pour en déceler 31 ppm de nickel et 54 ppm de Vanadium. […]
(§5) Les différentes fractions sont ensuite évaporées afin de recueillir la fraction pétrolière avec un bilan matière de 97% (en masse) et des teneurs en Nickel et Vanadium analysées par spectrométrie à fluorescence X de moins de 10 ppm (en masse). […]

[2] = Demetallation of model mixture (DAO + NiETIO + OEPVO): catalysed oxidation, metal removal, residual vanadium by X-ray fluorescence; conditions: by mass
Source text: as §1, §2, §3, §4, §5

Compound: Clc1cccc(Cl)c1-c1c2nc(c(-c3c(Cl)cccc3Cl)c3ccc([n-]3)c(-c3c(Cl)cccc3Cl)c3nc(c(-c4c(Cl)cccc4Cl)c4ccc1[n-]4)C=C3)C=C2.[Mn+2] [Exemple 4, méso-tétra-(2,6-dichloro) phényl porphyrinede manganèse]
- Après traitement Ni Taux d'élimination [1]: 93,8%
- Après traitement V Taux d'élimination [2]: 96,1%
